Reference: patent US20030199516A1, “Methods of treating infection by drug resistant bacteria” (Genesoft, Inc., priority 2001, published 2003)

Test system: S. aureus ATCC 33591
Assay: NCCLS broth microdilution MIC
Format: cell-based, Staphylococcus aureus
Details: Col. B = S. aureus ATCC 33591 (MRSA)
Description: (§1) In vitro antibacterial activity data were collected for the following Gram-positive bacteria: Staphylococcus aureus (ATCC 27660, ATCC 33591 and ATCC 43300, all methicillin resistant strains (MRSA's)); Streptococcus pneumoniae (ATCC 51422, a penicillin resistant strain (PRSP)), Enterococcus faecium (ATCC 51559, and/or a vancomycin resistant strain (VRE)). Additionally, antifungal activity data were collected for Candida albicans (ATCC 38247). Minimal inhibition concentrations (MIC's) were determined using the National Committee for Clinical Laboratory Standards (NCCLS) broth microdilution assay in microtiter plates, as set forth in: (1) the guidelines of the National Committee for Clinical Laboratory Standards (NCCLS) Document M7-A4 (NCCLS, 1997); (2) the guidelines of the National Committee for Clinical Laboratory Standards (NCCLS) Document M11-A4 (NCCLS, 1997); and (3) the guidelines and reference method of the National Committee for Clinical Laboratory Standards (NCCLS) Document M27-T (NCCLS, 1995). For antifungal essays, the method recommended in Murray, PR., 1995 Manual of Clinical Microbiology (ASM Press, Washington, D.C.), was employed.

| SMILES | Minimum Inhibitory Concentration (MIC) |
| --- | --- |
| Cn1cc(NC(=O)c2cc(NC(=O)c3cc(NC(=O)c4sccc4Cl)cn3C)cn2C)cc1C(=O)NCCN1CCOCC1 [Compound 6] | + (+ = MIC ≦ 2) |
| Cn1cc(NC(=O)c2cc3ccccc3cn2)cc1C(=O)Nc1cc(C(=O)Nc2cc(C(=O)NCCN3CCOCC3)n(CCN3CCOCC3)c2)n(C)c1 [Compound 17] | − (− = MIC > 2) |

Test system: S. aureus ATCC 43300
Assay: NCCLS broth microdilution MIC
Format: cell-based, Staphylococcus aureus
Details: Col. C = S. aureus ATCC 43300 (MRSA)
Description: as §1

| SMILES | Minimum Inhibitory Concentration (MIC) |
| --- | --- |
| Cn1cc(NC(=O)c2cc(NC(=O)c3cc(NC(=O)c4sccc4Cl)cn3C)cn2C)cc1C(=O)NCCN1CCOCC1 [Compound 6] | − (− = MIC > 2) |

Test system: S. aureus ATCC 27660
Assay: NCCLS broth microdilution MIC
Format: cell-based, Staphylococcus aureus
Details: Col. A = S. aureus ATCC 27660 (MRSA)
Description: as §1

| SMILES | Minimum Inhibitory Concentration (MIC) |
| --- | --- |
| Cc1cc(NC(=O)c2cc(NC(=O)c3cc(NC(=O)c4nsc(NCCN5CCCCC5)c4Cl)cn3C)cn2C)sn1 [Compound 13] | ++ (++ = MIC ≦ 1) |
| Cn1cc(NC(=O)c2cc3ccccc3cn2)cc1C(=O)Nc1cc(C(=O)Nc2cc(C(=O)NCCN3CCOCC3)n(CCN3CCOCC3)c2)n(C)c1 [Compound 17] | ++ (++ = MIC ≦ 1) |

Same assay, conditions: Staphylococcus aureus; Col. A = S. aureus ATCC 27660 (MRSA); read-out: Minimum Inhibitory Concentration (MIC)

| SMILES | MIC |
| --- | --- |
| Cn1cc(NC(=O)c2cc(NC(=O)c3cc(NC(=O)c4cc5ccccc5cn4)no3)cn2C)cc1C(=O)NCCN1CCOCC1 [Compound 20] | ≤ 1 µg/mL |

Test system: methicillin resistant Staphylococcus aureus ATCC 33591
Assay: Mouse protection assay
Format: in vivo
Details: balb/c mice, 50 mg/kg intravenously at 2, 8, 18 and 24 hours post infection; vehicle 14
Procedure: A S. aureus ATCC 33591 culture was grown to log phase overnight and diluted in phosphate buffered saline (pH 7.2) to an optical density of about 0.1 at 600 nm, giving an approximate concentration of 10^8 cfu/mL. Porcine mucin was added to the suspension to a final concentration of 5% mucin. The suspension was diluted 1:100 for a final concentration of 10^6 cfu/mL.
Female balb/c mice (20 g body weight) were injected intraperitoneally with 0.5 mL of bactenal suspension (10^6 cfu/mL). Vehicle (phosphate buffered saline, pH 7.2) or test compound were administered intravenously at 2, 8, 18, and 24 hours post infection. The animals were monitored twice daily and survival counts were recorded up to 48 hours post infection.

| SMILES | Survival at 48 hrs |
| --- | --- |
| Cn1cc(NC(=O)c2cc(NC(=O)c3cc(NC(=O)c4sccc4Cl)cn3C)cn2C)cc1C(=O)NCCN1CCOCC1 [Compound 6] | 86% |

Target: target sequence ATTACT (310 bp fragment, Plasmid B)
Assay: Quantitative DNase I footprint titration
Format: binding
Details: 310 bp B, 22° C., pH 7.0, read-out: Dissociation Constant Kd
Description: (§2) Compounds (1) through (20) according to this invention were screened for their ability to bind to specified DNA target sequences, using DNase I footprinting. Generally, the procedure described in Dervan, WO 98/50582 (1998), was followed.
(§3) Three double stranded circular plasmids A, B, and C were used to prepare double stranded DNA-binding probes containing the target sequences for the DNase I footprint titration experiments. Plasmids A, B, and C had nucleotide sequences given by SEQ ID NO. I, SEQ ID NO. II, and SEQ ID NO. III, respectively.
(§4) The 3′-P32 end-labeled EcoRI/PvuII fragments from each plasmid were prepared by digesting the plasmids with EcoRI and PvuII with simultaneous fill-in using Sequenase v. 2.0, [alpha-P32]-deoxyadenosine-5′-triphosphate, and [alpha-P32]-thymidine-5′-triphosphate, and isolating the cloned fragments by nondenaturing gel electrophoresis. A and G sequencing reactions were carried out as described (See Maxam and Gilbert, Methods Enzymol., 1980, 65, 499-560; Iverson and Dervan, Methods Enzymol., 1987, 15, 7823-7830; Sambrook et al., 1989, Molecular Cloning, 2nd ed., Cold Spring Harbor Laboratory Press: Cold Spring Harbor, N.Y.) Standard methods were used for all DNA manipulations (Sambrook et al., ibid.) The cut sites for EcoRI and PvuII are indicated by bars in the respective maps of Plasmids A, B, and C in FIGS. 5, 6, and 7.
(§5) The 351 base pair dsDNA restriction fragment (SEQ ID NO. IV) of Plasmid A contained the target sequences AAAAAGCAAAAA, AAAAAGACAAAAA, and AAAAAGTACAAAAA. The 310 base pair dsDNA restriction fragment (SEQ ID NO. V) of Plasmid B contained the target sequences AGTACT, AATACT, and ATTACT. The 352 base pair dsDNA restriction fragment (SEQ ID NO. VI) of Plasmid C contained the target sequences TGACAATTAAT, GACAATTAATCA, AATTAATCAT, ACAATTA, and ACAATTAAT. These fragments were used for quantitative DNase I footprinting experiments. Compounds used in the method of this invention bind to at least one of the target sites with a equal to or less than 100 nM, preferably equal to or less than 50 nM, and more preferably equal to or less than 20 nM. The target sequences were selected for the identity with, or similarity to, promoter sites for bacterial genes.
(§6) Quantitative DNase I footprint titration experiments were carried out as described previously (Dervan, WO 98/50582, 1998) with the following changes. All reactions were carried out in a total volume of 400 μL, with compound stock solution or water added to 15,000 cpm radiolabeled restriction fragment affording final solution conditions of 10 mM Tris HCl, 10 mM KCl, 10 mM MgCl2, 5 mM CaCl2, pH 7.0 and 0.01 nM, 0.1 nM, 1.0 nM, 10.0 nM compound or no compound for reference lanes. The compounds were allowed to equilbrate at 22° C. for 16 h. Footprinting reactions were initiated with addition of 10 μL of a DNase I stock solution (at the appropriate concentration to give ˜50% intact DNA) containing 1 mM DTT and allowed to proceed for 7 min at 22° C. The reactions were stopped, ethanol precipitated, resuspended in loading buffer, heat denatured, and placed on ice as described previously (Dervan WO 98/50582, 1998). The reaction products were separated on a precast 8% polyacrylamide denaturing sequencing Castaway gel with 32 preformed wells from Stratagene in 1×TBE at 2000 V. Gels were dried according to the manufacturer and exposed to a storage phosphor screen (Molecular Dynamics). Quantitation and data analysis were carried out as described in Dervan, WO 98/50582, 1998.

| SMILES | Kd |
| --- | --- |
| Cc1cc(NC(=O)c2cc(NC(=O)c3cc(NC(=O)c4nsc(NCCN5CCCCC5)c4Cl)cn3C)cn2C)sn1 [Compound 13] | 5 nM |

Target: target sequence AATTAATCAT (352 bp fragment, Plasmid C)
Assay: Quantitative DNase I footprint titration
Format: binding
Details: 352 bp C, 22° C., pH 7.0, read-out: Dissociation Constant Kd
Description: as §2, §3, §4, §5, §6

| SMILES | Kd |
| --- | --- |
| Cn1cc(NC(=O)c2cc(NC(=O)c3cc(NC(=O)c4cc5ccccc5cn4)no3)cn2C)cc1C(=O)NCCN1CCOCC1 [Compound 20] | 5 nM |
| Cc1cc(NC(=O)c2cc(NC(=O)c3cc(NC(=O)c4nsc(NCCN5CCCCC5)c4Cl)cn3C)cn2C)sn1 [Compound 13] | 10 nM |
| Cn1cc(NC(=O)c2cc(NC(=O)c3cc(NC(=O)c4sccc4Cl)cn3C)cn2C)cc1C(=O)NCCN1CCOCC1 [Compound 6] | 20 nM |
| Cn1cc(NC(=O)c2cc3ccccc3cn2)cc1C(=O)Nc1cc(C(=O)Nc2cc(C(=O)NCCN3CCOCC3)n(CCN3CCOCC3)c2)n(C)c1 [Compound 17] | 5 nM |

Target: target sequence AGTACT (310 bp fragment, Plasmid B)
Assay: Quantitative DNase I footprint titration
Format: binding
Details: 310 bp B, 22° C., pH 7.0, read-out: Dissociation Constant Kd
Description: as §2, §3, §4, §5, §6

| SMILES | Kd |
| --- | --- |
| Cn1cc(NC(=O)c2cc(NC(=O)c3cc(NC(=O)c4cc5ccccc5cn4)no3)cn2C)cc1C(=O)NCCN1CCOCC1 [Compound 20] | 10 nM |
| Cn1cc(NC(=O)c2cc3ccccc3cn2)cc1C(=O)Nc1cc(C(=O)Nc2cc(C(=O)NCCN3CCOCC3)n(CCN3CCOCC3)c2)n(C)c1 [Compound 17] | < 100 nM |

Test system: Candida albicans ATCC 38247
Assay: Antifungal MIC
Format: cell-based
Details: Candida albicans, ATCC38247; Col. F = C. albicans ATCC 38247; read-out: Minimum Inhibitory Concentration (MIC)
Description: as §1

| SMILES | MIC |
| --- | --- |
| Cn1cc(NC(=O)c2cc(NC(=O)c3cc(NC(=O)c4cc5ccccc5cn4)no3)cn2C)cc1C(=O)NCCN1CCOCC1 [Compound 20] | > 32 µg/mL |

Same assay, conditions: Col. F = C. albicans ATCC 38247

| SMILES | Minimum Inhibitory Concentration (MIC) |
| --- | --- |
| Cc1cc(NC(=O)c2cc(NC(=O)c3cc(NC(=O)c4nsc(NCCN5CCCCC5)c4Cl)cn3C)cn2C)sn1 [Compound 13] | >32 µg/mL |
| Cn1cc(NC(=O)c2cc(NC(=O)c3cc(NC(=O)c4sccc4Cl)cn3C)cn2C)cc1C(=O)NCCN1CCOCC1 [Compound 6] | >32 µg/mL |
| Cn1cc(NC(=O)c2cc3ccccc3cn2)cc1C(=O)Nc1cc(C(=O)Nc2cc(C(=O)NCCN3CCOCC3)n(CCN3CCOCC3)c2)n(C)c1 [Compound 17] | >32 µg/mL |

Test system: Streptococcus pneumoniae ATCC 51422
Assay: NCCLS broth microdilution MIC
Format: cell-based
Details: Col. E = S. pneumoniae ATCC 51422 (PRSP)
Description: as §1

| SMILES | Minimum Inhibitory Concentration (MIC) |
| --- | --- |
| Cn1cc(NC(=O)c2cc3ccccc3cn2)cc1C(=O)Nc1cc(C(=O)Nc2cc(C(=O)NCCN3CCOCC3)n(CCN3CCOCC3)c2)n(C)c1 [Compound 17] | ++ (++ = MIC ≦ 1) |

Test system: Enterococcus faecium ATCC 51559
Assay: NCCLS broth microdilution MIC
Format: cell-based
Details: Col. D = E. faecium ATCC 51559 (VRE)
Description: as §1

| SMILES | Minimum Inhibitory Concentration (MIC) |
| --- | --- |
| Cn1cc(NC(=O)c2cc(NC(=O)c3cc(NC(=O)c4sccc4Cl)cn3C)cn2C)cc1C(=O)NCCN1CCOCC1 [Compound 6] | ++ (++ = MIC ≦ 1) |
| Cn1cc(NC(=O)c2cc3ccccc3cn2)cc1C(=O)Nc1cc(C(=O)Nc2cc(C(=O)NCCN3CCOCC3)n(CCN3CCOCC3)c2)n(C)c1 [Compound 17] | ++ (++ = MIC ≦ 1) |
